These are literature values, as cited in US8657798B2, “Anti-inflammatory analgesic adhesive patch for external use” (Teikoku Seiyaku Co., Ltd., priority 2010, dated 2014).

The conditions of the data set: compared with diclofenac sodium.

As for Diclofenac hydroxyethylpyrrolidine, the water solubility entry is on record as “better water solubility than diclofenac sodium”.
